Species: Rattus norvegicus
Assay: DrugMatrix - Regimen: Daily Repeat
Type: toxicity, organism-based, Sprague-Dawley
Set-up: regimen Daily Repeat, gender Male, age 6-8 weeks
Details: in vivo, sc, route subcutaneous, […]; for ABSOLUTE BASOPHIL / ABSOLUTE EOSINOPHIL / ABSOLUTE LYMPHOCYTE / ABSOLUTE MONOCYTE / ABSOLUTE SEGMENTED NEUTROPHIL / BASOPHIL / EOSINOPHIL / ERYTHROCYTE COUNT / HEMATOCRIT / HEMOGLOBIN / LEUKOCYTE COUNT / LYMPHOCYTE / MEAN CORPUSCULAR HEMOGLOBIN / MEAN CORPUSCULAR HEMOGLOBIN CONCENTRATION / MEAN CORPUSCULAR VOLUME / MONOCYTE / NEUTROPHIL / NUCLEATED RED BLOOD CELLS / PLATELET COUNT: tissue Blood; for ALANINE AMINOTRANSFERASE / ALBUMIN / ALKALINE PHOSPHATASE / ASPARTATE AMINOTRANSFERASE / BLOOD UREA NITROGEN / CARBON DIOXIDE / CHLORIDE / CHOLESTEROL / CREATINE PHOSPHOKINASE / CREATININE / GLUCOSE / LACTATE DEHYDROGENASE / LIPASE / PHOSPHORUS / POTASSIUM / SODIUM / TOTAL BILIRUBIN / TOTAL PROTEIN / URIC ACID: tissue Plasma
[1] = 18 mg/kg, 120 h, dose level High, time 5 day
[2] = 72 h, dose 1.8 mg/Kg, dose level Low, time 3 day
[3] = 120 h, dose 1.8 mg/Kg, dose level Low, time 5 day

CN(C)c1ccc(C(=C2C=CC(=[N+](C)C)C=C2)c2ccc(N(C)C)cc2)cc1.[Cl-] [GENTIAN VIOLET]
ABSOLUTE BASOPHIL [1]: 0 CELLS/uL | ABSOLUTE EOSINOPHIL [1]: 0 CELLS/uL | ABSOLUTE LYMPHOCYTE [1]: 15601 CELLS/uL | ABSOLUTE MONOCYTE [1]: 1849 CELLS/uL | ABSOLUTE SEGMENTED NEUTROPHIL [1]: 7750 CELLS/uL | BASOPHIL [1]: 0% | EOSINOPHIL [1]: 0% | ERYTHROCYTE COUNT [1]: 5.48 x10E6/uL | HEMATOCRIT [1]: 32.93% | HEMOGLOBIN [1]: 12.37 G/DL | LEUKOCYTE COUNT [1]: 25.2 x10E3/uL | LYMPHOCYTE [1]: 61.67% | MEAN CORPUSCULAR HEMOGLOBIN [1]: 22.57 pg | MEAN CORPUSCULAR HEMOGLOBIN CONCENTRATION [1]: 37.57 G/DL | MEAN CORPUSCULAR VOLUME [1]: 60.17 fL | MONOCYTE [1]: 7.33% | NEUTROPHIL [1]: 31% | NUCLEATED RED BLOOD CELLS [1]: 0 /100WBC | PLATELET COUNT [1]: 1331.67 x10E3/uL | ALANINE AMINOTRANSFERASE [1]: 49 u/L | ALBUMIN [1]: 3.03 G/DL | ALKALINE PHOSPHATASE [1]: 294.67 u/L | ASPARTATE AMINOTRANSFERASE [1]: 116 u/L | BLOOD UREA NITROGEN [1]: 16.33 mg/dL | CARBON DIOXIDE [1]: 30.67 mmol/L | CHLORIDE [1]: 100 MEQ/L | CHOLESTEROL [1]: 62.33 mg/dL | CREATINE PHOSPHOKINASE [1]: 196.33 u/L | CREATININE [1]: 0.16 mg/dL | GLUCOSE [1]: 141.33 mg/dL | LACTATE DEHYDROGENASE [1]: 146.33 u/L | LIPASE [1]: 8 u/L | PHOSPHORUS [1]: 11.3 mg/dL | POTASSIUM [1]: 6.88 MEQ/L | SODIUM [1]: 143.85 MEQ/L | TOTAL BILIRUBIN [1]: 0.13 mg/dL | TOTAL PROTEIN [1]: 5.57 G/DL | URIC ACID [1]: 1.37 mg/dL | ABSOLUTE BASOPHIL [2]: 0 CELLS/uL | ABSOLUTE EOSINOPHIL [2]: 115.33 CELLS/uL | ABSOLUTE LYMPHOCYTE [2]: 15675.67 CELLS/uL | ABSOLUTE MONOCYTE [2]: 309.33 CELLS/uL | ABSOLUTE SEGMENTED NEUTROPHIL [2]: 2499.67 CELLS/uL | BASOPHIL [2]: 0% | EOSINOPHIL [2]: 0.67% | ERYTHROCYTE COUNT [2]: 5.43 x10E6/uL | HEMATOCRIT [2]: 34.87% | HEMOGLOBIN [2]: 12.97 G/DL | LEUKOCYTE COUNT [2]: 18.6 x10E3/uL | LYMPHOCYTE [2]: 84.33% | MEAN CORPUSCULAR HEMOGLOBIN [2]: 23.9 pg | MEAN CORPUSCULAR HEMOGLOBIN CONCENTRATION [2]: 37.2 G/DL | MEAN CORPUSCULAR VOLUME [2]: 64.3 fL | MONOCYTE [2]: 1.67% | NEUTROPHIL [2]: 13.33% | NUCLEATED RED BLOOD CELLS [2]: 0 /100WBC | PLATELET COUNT [2]: 1276.67 x10E3/uL | ALANINE AMINOTRANSFERASE [2]: 46 u/L | ALBUMIN [2]: 3.93 G/DL | ALKALINE PHOSPHATASE [2]: 341 u/L | ASPARTATE AMINOTRANSFERASE [2]: 77.33 u/L | BLOOD UREA NITROGEN [2]: 15 mg/dL | CARBON DIOXIDE [2]: 26.67 mmol/L | CHLORIDE [2]: 102 MEQ/L | CHOLESTEROL [2]: 86.67 mg/dL | CREATINE PHOSPHOKINASE [2]: 247 u/L | CREATININE [2]: 0.19 mg/dL | GLUCOSE [2]: 138.67 mg/dL | LACTATE DEHYDROGENASE [2]: 298.33 u/L | LIPASE [2]: 9.33 u/L | PHOSPHORUS [2]: 11.5 mg/dL | POTASSIUM [2]: 6.51 MEQ/L | SODIUM [2]: 144.73 MEQ/L | TOTAL BILIRUBIN [2]: 0.23 mg/dL | TOTAL PROTEIN [2]: 5.73 G/DL | URIC ACID [2]: 1.4 mg/dL | ABSOLUTE BASOPHIL [3]: 0 CELLS/uL | ABSOLUTE EOSINOPHIL [3]: 0 CELLS/uL | ABSOLUTE LYMPHOCYTE [3]: 17006.67 CELLS/uL | ABSOLUTE MONOCYTE [3]: 546.67 CELLS/uL | ABSOLUTE SEGMENTED NEUTROPHIL [3]: 2113.33 CELLS/uL | BASOPHIL [3]: 0% | EOSINOPHIL [3]: 0% | ERYTHROCYTE COUNT [3]: 5.57 x10E6/uL | HEMATOCRIT [3]: 34.4% | HEMOGLOBIN [3]: 12.93 G/DL | LEUKOCYTE COUNT [3]: 19.67 x10E3/uL | LYMPHOCYTE [3]: 86% | MEAN CORPUSCULAR HEMOGLOBIN [3]: 23.2 pg | MEAN CORPUSCULAR HEMOGLOBIN CONCENTRATION [3]: 37.6 G/DL | MEAN CORPUSCULAR VOLUME [3]: 61.77 fL | MONOCYTE [3]: 2.67% | NEUTROPHIL [3]: 11.33% | NUCLEATED RED BLOOD CELLS [3]: 0 /100WBC | PLATELET COUNT [3]: 1503 x10E3/uL | ALANINE AMINOTRANSFERASE [3]: 51 u/L | ALBUMIN [3]: 3.47 G/DL | ALKALINE PHOSPHATASE [3]: 278 u/L | ASPARTATE AMINOTRANSFERASE [3]: 83.67 u/L | BLOOD UREA NITROGEN [3]: 19 mg/dL | CARBON DIOXIDE [3]: 27.33 mmol/L | CHLORIDE [3]: 105 MEQ/L | CHOLESTEROL [3]: 73.33 mg/dL | CREATINE PHOSPHOKINASE [3]: 310 u/L | CREATININE [3]: 0.35 mg/dL | GLUCOSE [3]: 162 mg/dL | LACTATE DEHYDROGENASE [3]: 102.67 u/L | LIPASE [3]: 9.67 u/L | PHOSPHORUS [3]: 11.3 mg/dL | POTASSIUM [3]: 6.63 MEQ/L | SODIUM [3]: 144.03 MEQ/L | TOTAL BILIRUBIN [3]: 0.13 mg/dL | TOTAL PROTEIN [3]: 5.8 G/DL | URIC ACID [3]: 1.63 mg/dL

Source: ChEMBL document CHEMBL3885881, “DrugMatrix”
